How the values were obtained:
[1] = tested on: monkey hepatocytes; assay: Metabolite characterization in monkey hepatocytes; assay type: in vitro ADME; conditions: monkey hepatocyte 1 h incubates of ETN101; ND:<1.2E+05 peak area
Experimental: We mixed 60 μL aliquots of 40 μM ETN101 in incubation medium and an equal volume of human, mouse, rat, dog, or monkey hepatocyte suspension in 96-well plates and incubated for 0 or 1 h in a CO2 incubator at 37 °C. The reactions were quenched by adding 120 µL of ice-cold acetonitrile to each well, and the cell suspension was sonicated for 5 min at 4 °C. Subsequently, centrifugation was carried out at 15,000× g for 10 min at 4 °C. Next, the supernatants were evaporated to dryness using a vacuum concentrator, and residues were re-dissolved in 70 μL of 30% acetonitrile. Each sample (5 μL aliquots) was analyzed using LC–HRMS system.
For metabolite characterization, a Vanquish HPLC system (Thermo Fisher Scientific, San José, CA, USA) coupled with a Q-Exactive Orbitrap mass spectrometer (Thermo Fisher Scientific Inc., Waltham, MA, USA) was used at Core Research Support Center for Natural Products and Medical Materials at Yeungnam University. […] The eluent from the column was directly injected into the mass spectrometer using a heated electrospray ionization (HESI) source in positive ionization mode. […] The spray voltage was 3.0 kV and the capillary temperature was 320 °C. Full scan MS^1 with a data-dependent MS^2 acquisition mode was applied to obtain MS^1 scan data ranging from m/z 80 to 900, at a resolution of 70,000, whereas data-dependent MS^2 spectra were acquired for the five most abundant peaks per cycle at a resolution of 35,000. The parallel reaction monitoring (PRM) mode was used to obtain the MS^2 spectra of putative metabolites detected at low peak intensities in the data-dependent MS^2 acquisition mode. Data were collected and interpreted using Thermo Scientific Xcalibur™ Software (Thermo Fisher Scientific).

[2] = biological target: T1, CYP1A2 (Homo sapiens, UniProt P05177); assay: Incubation with human cDNA-expressed CYP1A2; assay type: in vitro ADME; conditions: CYP1A2, 30 min at 37 °C with NADPH; ETN101 10 μM or M1 1 μM
T1 construct: purchased Cypex Ltd. (Dundee, UK)
T1 sequence (P05177 1-516): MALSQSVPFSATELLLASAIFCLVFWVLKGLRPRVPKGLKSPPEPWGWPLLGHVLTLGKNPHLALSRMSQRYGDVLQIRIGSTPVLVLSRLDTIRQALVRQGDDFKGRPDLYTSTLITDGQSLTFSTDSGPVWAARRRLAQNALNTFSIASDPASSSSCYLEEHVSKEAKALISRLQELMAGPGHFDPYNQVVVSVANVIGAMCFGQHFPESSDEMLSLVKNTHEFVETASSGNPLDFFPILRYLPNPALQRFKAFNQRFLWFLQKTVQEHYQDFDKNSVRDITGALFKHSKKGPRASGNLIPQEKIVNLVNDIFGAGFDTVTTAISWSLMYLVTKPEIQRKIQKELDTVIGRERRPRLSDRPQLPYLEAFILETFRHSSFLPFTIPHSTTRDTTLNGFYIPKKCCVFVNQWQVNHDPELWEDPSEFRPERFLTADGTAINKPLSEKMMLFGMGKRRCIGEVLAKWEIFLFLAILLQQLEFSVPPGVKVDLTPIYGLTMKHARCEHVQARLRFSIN
Experimental: ETN101 or M1 was incubated with nine human cDNA-expressed CYP enzymes (1A2, 2A6, 2B6, 2C8, 2C9, 2C19, 2D6, 2E1, and 3A4) to identify the CYPs involved in the metabolism of ETN101. Based on the preliminary study, the incubation conditions were determined as follows: Briefly, reaction mixtures of 50 μL containing ETN101 (final concentration: 10 μM) or M1 (final concentration: 1 μM), and CYPs (final amount: 5 pmol for CYP1A2, 2A6, 2C8, 2C9, 2C19, 2D6, and 3A4; 10 pmol for CYP2B6 and 2E1) were prepared in 0.1 M potassium phosphate buffer. The reaction was initiated by adding 50 μL of NADPH- regenerating system; the mixtures were incubated for 0 min or 30 min at 37 °C in triplicate. Reactions were terminated by the addition of 100 μL of ice-cold acetonitrile containing the IS (camptothecin, 200 ng/mL). Samples were centrifuged at 13,000 rpm for 5 min at 4 °C. An aliquot of 2 μL supernatant was injected in LC–MS/MS system.
For enzyme characterization, an Agilent 6460 triple quadrupole mass spectrometer coupled with a 1260 HPLC system (Agilent Technologies, Santa Clara, CA, USA) and a Kinetex Halo® C18 column (2.7 μm, 2.1 × 50 mm, Advanced Material Technology, Wilmington, DE, USA) were used for chromatographic separation. […] ETN101, M1, and M2 were detected via MRM using ESI in the positive mode. […]

| Structure (SMILES) | Relative peak area (%) [1] | Percentage remaining [2] |
| --- | --- | --- |
| NCC(N)C(=O)Nc1ccc(-c2nc3ccccc3s2)cc1 (stereo not shown) [ETN101, 2,3-diamino-N-(4-(benzo[d]thiazol-2-yl)phenyl)propanamide] | 69.0% | 126.3% |
| Nc1ccc(-c2nc3ccccc3s2)cc1 [M1, 2-(4-aminophenyl)benzothiazole] | 21.5% | 5.3% |
